Reference: paper PMC12477080, “Polychlorinated biphenyls (PCBs) interact with drug metabolism in vivo” (Archives of Toxicology, 2025)

Tests used:
[1] = target: T1, recombinant CYP1A2 (Homo sapiens, UniProt P05177); assay: Luciferase-based P450-Glo enzyme assay with recombinant CYP1A2; assay type: biochemical; details: PCB118 1–10 µM; Luciferin–ME substrate; significant at highest concentration (p < 0.0001)
T1 construct: purchased Promega, Madison, WI, USA
T1 sequence (P05177 1-516): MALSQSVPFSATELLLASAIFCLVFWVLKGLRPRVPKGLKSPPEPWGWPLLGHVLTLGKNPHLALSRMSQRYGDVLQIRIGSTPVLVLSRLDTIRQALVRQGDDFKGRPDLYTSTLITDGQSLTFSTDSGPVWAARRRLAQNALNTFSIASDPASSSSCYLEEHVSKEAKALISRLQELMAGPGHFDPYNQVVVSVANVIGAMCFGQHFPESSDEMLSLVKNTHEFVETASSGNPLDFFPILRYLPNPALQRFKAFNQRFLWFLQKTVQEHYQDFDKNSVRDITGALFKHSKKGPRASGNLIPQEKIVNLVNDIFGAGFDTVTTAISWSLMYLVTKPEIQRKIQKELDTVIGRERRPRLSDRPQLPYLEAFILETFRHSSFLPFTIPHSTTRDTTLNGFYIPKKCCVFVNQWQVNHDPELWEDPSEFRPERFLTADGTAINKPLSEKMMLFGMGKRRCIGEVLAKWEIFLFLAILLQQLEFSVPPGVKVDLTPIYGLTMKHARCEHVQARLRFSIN

[2] = target: T2, Human CYP1A2 (Homo sapiens, UniProt P05177); assay: In vitro metabolism by CYP1A2 Supersomes; assay type: in vitro ADME; details: 10 µM substrate, 50 pmol/mL CYP1A2 supersomes, 2 mM NADPH; 1 h (phenacetin), 1 and 4 h (PCB118)
T2 construct: purchased; host or cells: insect cells
T2 sequence (P05177 2-516 limits assumed): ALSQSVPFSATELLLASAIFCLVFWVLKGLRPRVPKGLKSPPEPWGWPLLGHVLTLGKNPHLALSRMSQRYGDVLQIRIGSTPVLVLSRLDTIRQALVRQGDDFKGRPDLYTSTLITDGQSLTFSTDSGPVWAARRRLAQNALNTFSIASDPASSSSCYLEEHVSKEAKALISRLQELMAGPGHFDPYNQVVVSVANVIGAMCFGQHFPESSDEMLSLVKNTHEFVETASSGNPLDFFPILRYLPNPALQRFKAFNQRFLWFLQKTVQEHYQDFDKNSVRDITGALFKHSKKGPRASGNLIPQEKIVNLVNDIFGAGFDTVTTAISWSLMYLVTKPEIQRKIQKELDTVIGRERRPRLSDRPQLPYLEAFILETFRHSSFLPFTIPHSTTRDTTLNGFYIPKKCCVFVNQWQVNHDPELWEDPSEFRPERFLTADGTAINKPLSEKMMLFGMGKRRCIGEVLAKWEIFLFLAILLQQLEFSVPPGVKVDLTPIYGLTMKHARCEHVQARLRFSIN
Protocol: To investigate the metabolism of PCB118 by CYP1A2, incubation assays were conducted using CYP1A2 supersomes in a total reaction volume of 100 µL. Reaction mixtures were assembled on ice. […] Reactions were initiated by the addition of CYP1A2 supersomes.
To assess potential non-enzymatic transformations and confirm NADPH-dependent metabolism, control incubations were performed under the following conditions: buffer and enzyme only (no-substrate control), substrate, buffer, and NADPH without enzyme (no-enzyme control), and substrate, buffer, and enzyme without NADPH (no-NADPH control). Each experimental condition was conducted in triplicate, while control conditions were performed as single replicates.
The resulting supernatants (100 µL) were transferred to LC–MS vials, yielding samples with 80% methanol content for analysis. For the detection of hydroxylated PCB metabolites, reactions were stopped by adding 500 µL methanol, followed by the addition of 50 µL of an internal standard mix (10 ng/mL). Samples were vortexed for 1 min and centrifuged at 4,500 rpm for 10 min. The resulting supernatants were transferred to glass LC vials and evaporated under a nitrogen stream at 45 °C until approximately 50 µL remained. Samples were then reconstituted in 100 µL of 0.1 M ammonium acetate buffer (pH 5.3) before transfer to inserts for LC–MS analysis.
To determine whether PCB118 serves as a substrate for CYP1A2 and could act as a competitive inhibitor for other CYP1A2 substrates, we conducted in vitro metabolism experiments. […] In parallel, CYP1A2-mediated metabolism of PCB118 was assessed. […] The identity of 4-OH-CB107 was verified by comparison with an authentic reference standard, showing identical retention time and spectral characteristics (supplemental Fig. 1).

Clc1ccc(-c2cc(Cl)c(Cl)cc2Cl)cc1Cl [PCB118]
effect on CYP1A2 enzyme activity (luminescence) [1]: concentration-dependent inhibitory effect | CYP1A2-mediated metabolism of the substrate [2]: catalyzed the hydroxylation of PCB118, leading to the formation of 4-OH-CB107
